Test results as given in patent US8741836B2, “Polypeptides” (Novo Nordisk A/S, priority 2011, dated 2014).
Starred links: 1 amine or outer side, 2 acyl side, 3 side chain; linkers in the order of their positions; H or OH if unused. Positions of bridges follow the written chain, without caps; N, C: chain ends. Residues, ends and D or L forms follow the SMILES beside them. *: point of attachment. C20 diacid = O=C(O)CCCCCCCCCCCCCCCCCCC(=O)*; γGlu = O=C(O)[C@H](CCC(=O)[*:2])N[*:1]

How the values were obtained:
[1] = test system: ad libitum fed rat; test: Assay (I) efficacy testing on appetite (food intake) using an ad libitum fed rat model; format: in vivo, Sprague Dawley (SD) rats
Source text: In the following examples reference is made to the following Assays: • Assay (I)—Experimental protocol for efficacy testing on appetite using an ad libitum fed rat model • ASSAY (II)a—Functional assay—Human calcitonin and amylin receptor assay • ASSAY (II)b—Functional assay—Rat calcitonin and rat amylin receptor assays • ASSAY (III)—ThT fibrillation assays for the assessment of physical stability of protein formulations • ASSAY (IV)—Determination of solubility • ASSAY (V)—Determination of binding to the human amylin receptor • ASSAY (VI)—Determination of the binding to the rat amylin receptor • ASSAY (VII)—Determination of binding to the human calcitonin receptor • ASSAY (VIII)—Determination of binding to the rat calcitonin receptor • ASSAY (IX)—pK—Determination of T½ in mini-pig • ASSAY (X)—pK—Determination of T½ in rat Assay (I)—Experimental protocol for Efficacy Testing on Appetite Using an Ad Libitum Fed Rat Model
Sprague Dawley (SD) rats from Taconic Europe, Denmark are used for the experiments. The rats have a body weight 200-250 g at the start of experiment. The rats arrive at least 10-14 days before start of experiment to allow acclimatization to experimental settings. During this period the animals are handled at least 2 times. After arrival rats are housed individually for one week in a reversed light/dark phase (meaning that lights are off during daytime and on during nighttime) […]. Since rats are normally active and eat their major part of their daily food intake during the dark period, rats are dosed in the morning right before lights are turned off. This set-up results in the lowest data variation and highest test sensitivity. The experiment is conducted in the rats' home cages and rats have free access to food and water throughout the acclimatization period and the experiment period. Each dose of derivative is tested in a group of 5-8 rats. A vehicle group of 6-8 rats is included in each set of testing. Rats are dosed once according to body weight with a 0.01-3 mg/kg solution administered intraperitoneally (ip), orally (po) or subcutaneously (sc). The time of dosing is recorded for each group. After dosing, the rats are returned to their home cages, where they then have access to food and water. The food consumption is recorded individually continuously by on-line registration or manually every hour for 7 hours, and then after 24 h and sometimes 48 h. At the end of the experimental session, the animals are euthanised.
The individual data are recorded in Microsoft excel sheets. Outliers are excluded after applying the Grubbs statistical evaluation test for outliers, and the result is presented graphically using the GraphPad Prism program.

[2] = Assay (III) ThT fibrillation assay for physical stability; format: physicochemical; conditions: for ThT pH 4.0 lag time: pH 4.0, ThT fibrillation assay
Summary of the method: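 Freshly prepared, pH-adjusted formulations with 1 μM ThT incubated at 37 °C under 960 rpm orbital shaking (1 mm), fluorescence (ex 444, em 485 nm) read every 20 min. […] Peptide content before and after measured by reverse-phase HPLC against pramlintide standard.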

ThT pH 4.0 lag time (physical stability in fibrillogenesis assay) ([2]; pH 4.0) [h]	ThT pH 4.0 lag time [2] [h]	Compound	Food intake reduction 0-24 h 3 nmol/kg (%) ([1]; 0-24 h)	Food intake reduction 24-48 h 3 nmol/kg (%) ([1]; 24-48 h)	Food intake reduction 0-24 h 30 nmol/kg (%) ([1]; 30 nmol/kg, 0-24 h)	Food intake reduction 24-48 h 30 nmol/kg (%) ([1]; 30 nmol/kg, 24-48 h)
–	–	CC[C@H](C)[C@H](NC(=O)[C@@H]1CCCN1C(=O)CNC(=O)[C@H](Cc1ccccc1)NC(=O)[C@H](CC(N)=O)NC(=O)[C@H](CC(N)=O)NC(=O)[C@H](CO)NC(=O)[C@H](CO)NC(=O)[C@H](CCCNC(=N)N)NC(=O)[C@H](Cc1c[nH]cn1)NC(=O)[C@H](CC(C)C)NC(=O)[C@H](Cc1ccccc1)NC(=O)[C@H](CCC(=O)O)NC(=O)[C@H](C)NC(=O)[C@H](CC(C)C)NC(=O)[C@H](CCCNC(=N)N)NC(=O)[C@H](CCC(N)=O)NC(=O)[C@@H](NC(=O)[C@H](C)NC(=O)[C@@H]1CSSC[C@H](NC(=O)[C@H](Cc2c[nH]cn2)NC(=O)CC[C@H](NC(=O)CCCCCCCCCCCCCCCCCCC(=O)O)C(=O)O)C(=O)N[C@@H](CC(N)=O)C(=O)N[C@@H]([C@@H](C)O)C(=O)N[C@@H](C)C(=O)N[C@@H]([C@@H](C)O)C(=O)N1)[C@@H](C)O)C(=O)N[C@@H](CC(C)C)C(=O)N1CCC[C@H]1C(=O)N1CCC[C@H]1C(=O)N[C@H](C(=O)N[C@@H](CC(N)=O)C(=O)N[C@H](C(=O)NCC(=O)N[C@@H](CO)C(=O)N[C@@H](CC(N)=O)C(=O)N[C@H](C(=O)N[C@@H](Cc1ccc(O)cc1)C(N)=O)[C@@H](C)O)C(C)C)[C@@H](C)O [Example 1, N-alpha-[(S)-4-Carboxy-4-(19-carboxynonadecanoylamino)butyryl]-[His1,Glu14,His17,Arg18]-pramlintide] ({C20 diacid-γGlu}-HCNTATCATQRLAEFLHRSSNNFGPILPPTNVGSNTY-NH2; disulfide 2-7 (inferred); C-terminus assumed)	50	45	93	92
–	–	CC[C@H](C)[C@H](NC(=O)[C@@H]1CCCN1C(=O)CNC(=O)[C@H](Cc1ccccc1)NC(=O)[C@H](CC(N)=O)NC(=O)[C@H](CC(N)=O)NC(=O)[C@H](CO)NC(=O)[C@H](CO)NC(=O)[C@H](CCCNC(=N)N)NC(=O)[C@H](Cc1c[nH]cn1)NC(=O)[C@H](CC(C)C)NC(=O)[C@H](Cc1ccccc1)NC(=O)[C@H](CCC(=O)O)NC(=O)[C@H](C)NC(=O)[C@H](CC(C)C)NC(=O)[C@H](CCCNC(=N)N)NC(=O)[C@H](CCC(N)=O)NC(=O)[C@@H](NC(=O)[C@H](C)NC(=O)[C@@H]1CSSC[C@H](NC(=O)CC[C@H](NC(=O)CCCCCCCCCCCCCCCCCCC(=O)O)C(=O)O)C(=O)NCC(=O)N[C@@H]([C@@H](C)O)C(=O)N[C@@H](C)C(=O)N[C@@H]([C@@H](C)O)C(=O)N1)[C@@H](C)O)C(=O)N[C@@H](CC(C)C)C(=O)N1CCC[C@H]1C(=O)N1CCC[C@H]1C(=O)N[C@H](C(=O)N[C@@H](CCC(=O)O)C(=O)N[C@H](C(=O)NCC(=O)N[C@@H](CO)C(=O)NCC(=O)N[C@H](C(=O)N[C@@H](Cc1ccc(O)cc1)C(N)=O)[C@@H](C)O)C(C)C)[C@@H](C)O [Example 3, N-alpha-[(S)-4-Carboxy-4-(19-carboxynonadecanoylamino)butyryl]-[des1,Gly3,Glu14,His17,Arg18,Glu31,Gly35]-pramlintide] ({C20 diacid-γGlu}-CGTATCATQRLAEFLHRSSNNFGPILPPTEVGSGTY-NH2; disulfide 1-6)	37	32	–	–
–	–	CC[C@H](C)[C@H](NC(=O)[C@H](CCC(=O)O)NC(=O)CNC(=O)[C@H](Cc1ccccc1)NC(=O)[C@H](CC(N)=O)NC(=O)[C@H](CC(N)=O)NC(=O)[C@H](CO)NC(=O)[C@H](CO)NC(=O)[C@H](CCCNC(=N)N)NC(=O)[C@H](Cc1c[nH]cn1)NC(=O)[C@H](CC(C)C)NC(=O)[C@H](Cc1ccccc1)NC(=O)[C@H](CCC(=O)O)NC(=O)[C@H](C)NC(=O)[C@H](CC(C)C)NC(=O)[C@H](CCCNC(=N)N)NC(=O)[C@H](CCC(N)=O)NC(=O)[C@@H](NC(=O)[C@H](C)NC(=O)[C@@H]1CSSC[C@H](NC(=O)[C@H](Cc2c[nH]cn2)NC(=O)CC[C@H](NC(=O)CCCCCCCCCCCCCCCCCCC(=O)O)C(=O)O)C(=O)N[C@@H](CC(N)=O)C(=O)N[C@@H]([C@@H](C)O)C(=O)N[C@@H](C)C(=O)N[C@@H]([C@@H](C)O)C(=O)N1)[C@@H](C)O)C(=O)N[C@@H](CC(C)C)C(=O)N[C@@H](CO)C(=O)N[C@@H](CCCNC(=N)N)C(=O)N[C@H](C(=O)N[C@@H](CC(N)=O)C(=O)N[C@H](C(=O)NCC(=O)N[C@@H](CO)C(=O)N[C@@H](CC(N)=O)C(=O)N[C@H](C(=O)N[C@@H](Cc1ccc(O)cc1)C(N)=O)[C@@H](C)O)C(C)C)[C@@H](C)O [Example 7, N-alpha-[(S)-4-Carboxy-4-(19-carboxynonadecanoylamino)butyryl]-[His1,Glu14,His17,Arg18,Glu25,Ser28,Arg29]-pramlintide] ({C20 diacid-γGlu}-HCNTATCATQRLAEFLHRSSNNFGEILSRTNVGSNTY-NH2; disulfide 2-7 (inferred))	53	46	–	–
>45	>45	CC[C@H](C)[C@H](NC(=O)[C@@H]1CCCN1C(=O)CNC(=O)[C@H](Cc1ccccc1)NC(=O)[C@H](CO)NC(=O)[C@H](CO)NC(=O)[C@H](CO)NC(=O)[C@H](CO)NC(=O)[C@H](CCCNC(=N)N)NC(=O)[C@@H](NC(=O)[C@H](CC(C)C)NC(=O)[C@H](Cc1ccccc1)NC(=O)[C@H](CCC(=O)O)NC(=O)[C@H](C)NC(=O)[C@H](CC(C)C)NC(=O)[C@H](CCCNC(=N)N)NC(=O)[C@H](CCC(N)=O)NC(=O)[C@@H](NC(=O)[C@H](C)NC(=O)[C@@H]1CSSC[C@H](NC(=O)[C@H](CCCCN)NC(=O)CC[C@H](NC(=O)CCCCCCCCCCCCCCCCCCC(=O)O)C(=O)O)C(=O)N[C@@H](CC(N)=O)C(=O)N[C@@H]([C@@H](C)O)C(=O)N[C@@H](C)C(=O)N[C@@H]([C@@H](C)O)C(=O)N1)[C@@H](C)O)C(C)C)C(=O)N[C@@H](CC(C)C)C(=O)N[C@@H](CO)C(=O)N[C@@H](CO)C(=O)N[C@H](C(=O)N[C@@H](CC(=O)O)C(=O)N[C@H](C(=O)NCC(=O)N[C@@H](CO)C(=O)N[C@@H](CC(=O)O)C(=O)N[C@H](C(=O)N1CCC[C@H]1C(N)=O)[C@@H](C)O)C(C)C)[C@@H](C)O [Example 170, N-alpha-[(S)-4-Carboxy-4-(19-carboxynonadecanoylamino)butyryl]-[Glu14,Arg18,Ser21,Ser22,Ser28,Ser29,Asp31,Asp35,Pro37]-pramlintide] ({C20 diacid-γGlu}-KCNTATCATQRLAEFLVRSSSSFGPILSSTDVGSDTP-NH2; disulfide 2-7)	–	–	–	–
–	>45	CC[C@H](C)[C@H](NC(=O)[C@@H]1CCCN1C(=O)CNC(=O)[C@H](Cc1ccccc1)NC(=O)[C@H](CC(N)=O)NC(=O)[C@H](CC(N)=O)NC(=O)[C@H](CO)NC(=O)[C@H](CO)NC(=O)[C@H](Cc1c[nH]cn1)NC(=O)[C@H](CCCNC(=N)N)NC(=O)[C@H](CC(C)C)NC(=O)[C@H](Cc1ccccc1)NC(=O)[C@H](CCC(=O)O)NC(=O)[C@H](C)NC(=O)[C@H](CC(C)C)NC(=O)[C@H](CCCNC(=N)N)NC(=O)[C@H](CCC(N)=O)NC(=O)[C@@H](NC(=O)[C@H](C)NC(=O)[C@@H]1CSSC[C@H](NC(=O)[C@H](CCCNC(=N)N)NC(=O)[C@H](CCC(=O)O)NC(=O)CC[C@H](NC(=O)CCCCCCCCCCCCCCCCCCC(=O)O)C(=O)O)C(=O)N[C@@H](CC(N)=O)C(=O)N[C@@H]([C@@H](C)O)C(=O)N[C@@H](C)C(=O)N[C@@H]([C@@H](C)O)C(=O)N1)[C@@H](C)O)C(=O)N[C@@H](CC(C)C)C(=O)N1CCC[C@H]1C(=O)N1CCC[C@H]1C(=O)N[C@H](C(=O)N[C@@H](CC(N)=O)C(=O)N[C@H](C(=O)NCC(=O)N[C@@H](CO)C(=O)N[C@@H](CC(N)=O)C(=O)N[C@H](C(=O)N1CCC[C@H]1C(N)=O)[C@@H](C)O)C(C)C)[C@@H](C)O [compound 156] ({C20 diacid-γGlu}-ERCNTATCATQRLAEFLRHSSNNFGPILPPTNVGSNTP-NH2; disulfide 3-8 (inferred))	–	–	–	–
